Experimental data taken from patent publication US4912116A, “Propiophenone derivatives for treatment of pollakiuria (frequency urination)” (Hokuriku Pharmaceutical Co., Ltd., priority 1986, dated 1990).
Structures can show the parent of a compound that is named as a salt.

Columns and labels:
in vivo = details: mouse, oral, mortality for one week, Probit method
Method: Five to ten male ddY mice aged 4-5 weeks were used for each determination.
The test drug (5-8 dose levels) was orally administrated, and the LD50 value was calculated by Probit method from the mortality for one week after administration.

[1] = system: cystometrogram (time to micturition); test: Effects on the cystometrogram (Dog); type: in vivo, Mongrel adult dogs; details: i.v., dogs, mean ± S.E., saline 6.0 ± 13.8
Method: (§1) statistical analysis: Each data of Experiment 1-6 represents the mean±S.E. statistical analysis of the data was performed using student's t-test.
Mongrel adult dogs weighing about 10 kg were anesthetized with thiopental (20 mg/kg, i.v.) and immobilized with gallamine (2 mg/kg, i.v.), and fixed on their back.
In the experiment, infusion of pentobarbital (3 mg/kg/hr, i.v.) and gallamine (3 mg/kg i.v.) were continuted, and artifical respiration was performed (20 times/min, 20 ml air/kg).
After midline incision of the abdomen, the ureters were ligated and polyethylene tubes were inserted into the kidney side and the urinary bladder side. Urine was led out of the body from the kidney side, and warm saline was infused using a continuous infusion pump from the urinary bladder side.
Then, a catheter was inserted into the bladder dome and connected to a pressure transducer. Intravesical pressure was recorded on a recorder.
The infusion rate of saline was changed (6-35 ml/min) so as to induce the time to micturition from the saline infusion (time to micturition) at about five minutes.
The drug was administered (through a cannula inserted into the right femoral vein) at the second minute before the last time to micturition, and the delayed time of micturition was evaluated.

[2] = system: micturition reflex (rhythmic bladder contractions); test: Inhibition of micturition reflex (rhythmic bladder contractions) in anesthetized rats; type: in vivo, male wister rats; details: for Disappearance time (of bladder contractions): i.v., 3 rats, mean ± S.E.; for ED (3 min disappearance of contractions): iv, read-out: ED3 (dose at which rhythmic bladder contractions disappeared in three (3) minutes)
Method: as §1
According to the method described by Morikawa et al. (Folia phamacol. japon.: 88,355 (1986), male wister rats weighing about 300 g (in case of intraduodenal administration, fasted 18-20 hours) were anesthetized with urethane (500 mg/kg, i.p.) and alpha-chloralose (50 mg/kg, i.p.), and fixed on their back.
Then, through a midline incision of the abdomen, the urinary bladder was exposed, provided with a small incision, and a balloon (capacity about 1 ml) was inserted into the bladder dome.
The balloon was connected to a pressure transducer and variations of inside pressure were recorded on a recorder.
Micturition reflex was elicited by elevating balloon pressure 10-20 cm H2 O.
In case of intravenous administration, the drug was administrated through a cannula inserted into the left jugular vein and, in case of intraduodenum administration, the drug was administrated through a cannula into the duodenum from outside the stomach.
In case of intravenous administration, the drug was evaluated by the dissappearance time of bladder contractions caused by micturition reflex.
In case of intraduodenal administration, the sum total of amplitude of bladder contractions caused by the micturition reflex was calculated during each five minutes at 5 min. before and 15, 30, 45, and 60 min. after the administration.
Then, the maximum inhibition rate was determined from one of the above judgment times compared with that of before the administration, and the dose which inhibited 50 percent of the sum total of amplitude of bladder contractions during five minutes (ED 50 value), was calculated from the graph.

[3] = system: cystometrogram (time to micturition); test: Effects on the cystometrogram (Cat); type: in vivo, Mongrel adult cats; details: cats
Method: as §1
Mongrel adult cats weighing about 3 kg (in case of intraduodenal administration, fasted 24 hours) were anesthetized with urethane (500 mg/kg, i.p.) and alpha-chloralose (50 mg/kg, i.p.) and fixed on their back.
After midline incision of the abdomen, the ureters were ligated and polyethylene tubes were inserted into the kidney side and urinary bladder side, urine was led out of the body from the kidney side, and warm saline was infused using a continuous infusion pump from the urinary bladder side.
Then, a catheter was inserted into the bladder dome and connected to a pressure transducer Intravesical pressure was recorded on a recorder.
The infusion rate of saline was changed (0.7-6.6 ml/min) so as to induce the time to micturition from saline infusion at about five minutes.
Each of delayed time of micturition was evaluated. In case of intravenous administration, the drug was administered through a cannula inserted into the right femoral vein at 30 seconds before saline infusion.
In case of intraduodenal administration, the drug was administrated through a tube inserted into the duodenum by way of mouth at the time of saline infusion, and the time to micturition was measured at 15 min. intervals until 90 min.

SMILES | LD50 at 168 h (in vivo) | Disappearance time (of bladder contractions) ([2]; 1 mg/kg) | ED (3 min disappearance of contractions) ([2]; Rattus norvegicus) | Disappearance time (of bladder contractions) ([2]; 2 mg/kg) | Disappearance time (of bladder contractions) ([2]; 4 mg/kg) | Disappearance time (of bladder contractions) ([2]; 8 mg/kg) | also measured
Cc1c(-c2ccccc2)oc2c(C(=O)OCCN3CCCCC3)cccc2c1=O [flavoxate-HCl, reference compound] | 1330 mg/kg | 1.1 ± 1.1 min | 1.4 mg/kg |  |  |  | Delayed time of micturition ([1]; 1 mg/kg): 0.6 ± 35.4 s; Delayed time of micturition ([1]; 3 mg/kg, * p < 0.05 vs last time to micturition): 30.6 ± 44.4 s; Disappearance time (of bladder contractions) ([2]; 3 mg/kg): 7.5 ± 2.7 min; ED50 ([2]; Rattus norvegicus, intraduodenal administration, read-out: ED50 (dose which inhibited 50 percent of the sum total of amplitude of bladder contractions during five minutes)): 270 mg/kg; Delayed time to micturition ([3]; 1 mg/kg, i.v., mean ± S.E., saline 6.6 ± 10.2): 12.0 ± 10.8 s; Delayed time to micturition ([3]; 4 mg/kg, i.v., mean ± S.E., saline 6.6 ± 10.2): 39.0 ± 43.8 s; Delayed time to micturition ([3]; 8 mg/kg, i.v., mean ± S.E., saline 6.6 ± 10.2): -16.8 ± 36.6 s; Delayed time to micturition ([3]; 30.0 mg/kg, i.d., after 30 min., water 22.2 ± 16.2): -45.6 ± 37.8 s; delayed effect on the cystometrogram (in words) ([3]; intravenous and intraduodenal): not recognized to produce delayed effects
CC(CN1CCCC1)C(=O)c1ccc(CF)cc1 (stereo not shown) [Compound 8] |  |  |  | 1.5 ± 4.79 min | 2.4 ± 2.0 min | 5.2 ± 2.5 min | 
CCc1ccc(C(=O)C(C)CN2CCCCC2)cc1 (stereo not shown) [Compound 3] |  | 0.4 ± 0.4 min | 1.4 mg/kg | 5.3 ± 2.6 min | 12.0 ± 1.2 min |  | 
Cc1ccc(C(=O)C(C)CN2CCCCC2)cc1 (stereo not shown) [Compound 4] | 450 mg/kg | 1.0 ± 0.7 min | 2.4 mg/kg | 2.3 ± 0.5 min | 4.9 ± 1.9 min |  | 
CC(CN1CCCCCC1)C(=O)c1ccc(F)cc1 (stereo not shown) [Compound 9] |  | 0.5 ± 0.1 min | 2.7 mg/kg | 1.2 ± 0.8 min | 5.5 ± 2.7 min |  | 
CC(CN1CCCC1)C(=O)c1ccc(C2CCCCC2)cc1 (stereo not shown) [Compound 2] | 587 mg/kg | 1.0 ± 1.0 min | 2.2 mg/kg | 2.5 ± 1.3 min | 6.3 ± 0.8 min |  | 
CC(CN1CCOCC1)C(=O)c1cccc(F)c1 (stereo not shown) [Compound 7] |  |  | 2.8 mg/kg | 1.8 ± 1.0 min |  | 6.8 ± 2.1 min | 
CN1CCCC1CCC(=O)c1ccc(Cl)cc1 (stereo not shown) [Compound 6] |  |  | 8 mg/kg | 1.1 ± 0.3 min | 1.9 ± 0.3 min | 3.0 ± 0.3 min | 
COc1ccc(C(=O)C(C)CN2CCCC2)c(C)c1C (stereo not shown) [Compound 5] |  | 6.3 ± 1.4 min | 0.25 mg/kg |  |  |  | Disappearance time (of bladder contractions) ([2]; 0.25 mg/kg): 3.0 ± 0.4 min
